# Reference: the supplement of paper PMC10307832
# Legend:
# Test in all cases: relative viability (nuclei count vs DMSO), 5 days (fraction); higher = more cells survive
# [1] = compound: CC(O)(CS(=O)(=O)c1ccc(F)cc1)C(=O)Nc1ccc(C#N)c(C(F)(F)F)c1 [Bicalutamide] + CC(=O)c1c(C)c2cnc(Nc3ccc(N4CCNCC4)cn3)nc2n(C2CCCC2)c1=O [Palbociclib] (partner 0.5 µM)
# Method in brief: (§1)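 Five library-drug doses in √10 steps were combined with a fixed anchor-drug dose, or a single drug was given alone, by pin tool to lung cancer cell lines in 1536-well plates the day after seeding. Nuclei were stained and counted after 5 days. Relative viability is the nuclei count in treated wells over that in vehicle wells, taken as the median of duplicate plates.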
# [2] = compound: CC(O)(CS(=O)(=O)c1ccc(F)cc1)C(=O)Nc1ccc(C#N)c(C(F)(F)F)c1 [Bicalutamide] + Cc1cc(Nc2cc(N3CCN(C)CC3)nc(Sc3ccc(NC(=O)C4CC4)cc3)n2)n[nH]1 [Tozasertib] (partner 0.1 µM)
# Method in brief: as §1
# [3] = compound: CC(O)(CS(=O)(=O)c1ccc(F)cc1)C(=O)Nc1ccc(C#N)c(C(F)(F)F)c1 [Bicalutamide] + Cc1nc(NC(=O)N2CCC[C@H]2C(N)=O)sc1-c1ccnc(C(C)(C)C(F)(F)F)c1 [Alpelisib] (partner 2 µM)
# Method in brief: as §1
# [4] = compound: CC(O)(CS(=O)(=O)c1ccc(F)cc1)C(=O)Nc1ccc(C#N)c(C(F)(F)F)c1 [Bicalutamide] + N=C(N)NC(=N)NCCc1ccccc1 [Phenformin] (partner 250 µM)
# Method in brief: as §1
Cell Line,relative viability ([1]; first compound 0.08 µM),relative viability ([1]; first compound 0.253 µM),relative viability ([1]; first compound 0.8 µM),relative viability ([1]; first compound 2.53 µM),relative viability ([2]; first compound 0.08 µM),relative viability ([2]; first compound 0.253 µM),relative viability ([2]; first compound 0.8 µM),relative viability ([2]; first compound 2.53 µM),relative viability ([3]; first compound 0.08 µM),relative viability ([3]; first compound 0.253 µM),relative viability ([3]; first compound 0.8 µM),relative viability ([3]; first compound 2.53 µM),relative viability ([4]; first compound 0.08 µM),relative viability ([4]; first compound 0.253 µM),relative viability ([4]; first compound 0.8 µM),relative viability ([4]; first compound 2.53 µM)
201T,0.379,0.351,0.386,0.365,1.01,0.917,0.962,0.793,1.05,0.93,1.01,1,0.503,0.414,0.481,0.416
A549,–,–,–,–,–,–,–,–,0.878,0.685,0.889,0.733,0.247,0.11,0.181,0.254
A-427,0.547,0.54,0.56,0.526,0.232,0.183,0.209,0.165,1.07,1.09,1.19,0.992,0.382,0.283,0.367,0.224
ABC-1,0.698,0.474,0.808,0.601,0.179,0.168,0.17,0.167,1.03,1.21,0.997,0.992,0.26,0.229,0.253,0.212
BEN,0.442,0.438,0.526,0.496,0.475,0.533,0.527,0.487,0.89,0.991,1.36,1.01,0.257,0.262,0.28,0.279
CAL-12T,0.505,0.352,0.533,0.329,0.267,0.332,0.324,0.373,1.39,1.09,1.44,1.1,0.609,0.505,0.626,0.493
COR-L23,0.359,0.293,0.353,0.269,0.253,0.196,0.172,0.179,0.846,0.757,0.843,0.727,0.5,0.487,0.512,0.414
COR-L 105,0.405,0.407,0.379,0.379,0.391,0.348,0.408,0.387,0.957,0.89,1,0.83,0.481,0.412,0.52,0.37
Calu-6,–,–,–,–,–,–,–,–,1.04,0.908,1.04,0.868,–,–,–,–
ChaGo-K-1,0.933,0.849,1.04,0.961,0.219,0.238,0.212,0.292,–,–,–,–,0.449,0.388,0.509,0.48
EBC-1,–,–,–,–,–,–,–,–,0.885,0.845,0.828,0.776,–,–,–,–
EKVX,0.381,0.392,0.445,0.374,0.372,0.315,0.386,0.371,0.846,0.827,1.01,0.829,0.246,0.223,0.233,0.24
EMC-BAC-2,0.532,0.502,0.543,0.437,0.346,0.285,0.289,0.249,0.702,0.674,0.791,0.694,0.541,0.554,0.609,0.46
EPLC-272H,0.328,0.313,0.341,0.295,0.238,0.224,0.25,0.237,1.05,1.03,0.951,0.809,0.34,0.274,0.311,0.315
H3255,0.35,0.324,0.308,0.302,0.743,0.439,–,0.604,0.697,0.618,1.14,0.649,0.42,0.337,–,0.352
HARA,0.246,0.262,0.329,0.242,0.128,0.099,0.103,0.182,1.01,0.767,0.931,0.876,0.516,0.388,0.595,0.481
HCC-15,0.727,0.501,0.79,0.767,0.428,0.394,0.365,0.228,0.935,0.897,0.985,0.86,0.513,0.418,0.6,0.484
HCC-44,0.953,1.03,1.04,0.944,1.06,0.874,0.746,1.12,0.848,0.764,0.902,0.794,0.302,0.177,0.292,0.184
HCC-78,0.464,0.513,0.499,0.476,0.43,0.351,0.472,0.347,0.288,0.327,0.452,0.253,0.776,0.557,0.796,0.668
HCC-366,0.368,0.383,0.583,0.359,0.133,0.0841,0.0976,0.0526,0.476,0.255,0.465,0.37,0.568,0.615,0.699,0.64

Cell Line,relative viability ([1]; first compound 0.08 µM),relative viability ([1]; first compound 0.253 µM),relative viability ([1]; first compound 0.8 µM),relative viability ([1]; first compound 2.53 µM),relative viability ([2]; first compound 0.08 µM),relative viability ([2]; first compound 0.253 µM),relative viability ([2]; first compound 0.8 µM),relative viability ([2]; first compound 2.53 µM),relative viability ([3]; first compound 0.08 µM),relative viability ([3]; first compound 0.253 µM),relative viability ([3]; first compound 0.8 µM),relative viability ([3]; first compound 2.53 µM),relative viability ([4]; first compound 0.08 µM),relative viability ([4]; first compound 0.253 µM),relative viability ([4]; first compound 0.8 µM),relative viability ([4]; first compound 2.53 µM)
HCC-827,0.499,0.389,0.496,0.476,0.403,0.341,0.402,0.402,0.965,0.79,1.03,0.958,0.405,0.316,0.412,0.443
HOP-62,0.47,0.464,0.566,0.502,0.419,0.402,0.425,0.34,1.31,0.959,1.19,1.12,0.681,0.651,0.769,0.698
IA-LM,–,–,–,–,–,–,–,–,0.801,0.793,0.964,0.782,–,–,–,–
LC-2-ad,0.475,0.473,0.464,0.516,0.465,0.429,0.552,0.505,0.99,0.921,0.852,0.894,0.607,0.529,0.654,0.56
LCLC-97TM1,0.227,0.216,0.3,0.225,0.212,0.186,0.296,0.231,0.254,0.231,0.286,0.226,0.442,0.426,0.463,0.443
LCLC-103H,0.467,0.478,0.53,0.51,0.546,0.412,0.468,0.411,1.04,0.907,1.1,1.02,0.305,0.326,0.379,0.355
LK-2,0.665,0.511,0.783,0.63,0.19,0.178,0.152,0.179,1.21,0.878,1.44,1.16,0.526,0.198,0.498,0.629
LOU-NH91,0.449,0.548,0.553,0.541,0.696,0.516,0.798,0.662,0.698,0.608,0.828,0.745,0.745,0.493,0.814,0.821
LU99A,0.386,0.36,0.531,0.393,0.279,0.238,0.297,0.226,0.625,0.447,0.603,0.402,0.917,0.715,0.997,0.663
LXF-289,0.596,0.543,0.614,0.592,0.206,0.182,0.198,0.157,1.04,0.952,1.08,1.03,0.596,0.481,0.55,0.519
NCI-H522,0.949,1.11,1.11,0.894,0.552,0.627,0.597,0.543,–,–,–,–,0.659,0.649,0.622,0.661
NCI-H596,–,–,–,–,0.897,0.82,0.998,0.989,0.521,0.493,0.588,0.568,0.586,0.643,0.794,0.897
NCI-H1299,–,–,–,–,–,–,–,–,1.11,1.13,1.08,1.11,–,–,–,–
NCI-H1563,–,–,–,–,–,–,–,–,0.944,0.95,0.897,0.779,0.695,0.718,0.654,0.629
NCI-H1648,–,–,0.317,0.254,–,0.496,0.602,0.358,–,–,–,–,–,–,–,–
NCI-H1650,0.435,0.314,0.464,0.355,0.501,0.395,0.341,0.388,–,–,–,–,0.429,0.375,0.493,0.378
NCI-H1703,–,–,–,–,–,–,–,–,0.321,0.243,0.332,0.262,–,–,–,–
NCI-H1792,0.653,0.569,0.759,0.614,–,–,–,–,0.722,0.656,0.794,0.665,0.275,–,0.444,0.344
NCI-H2342,0.526,0.519,0.726,0.523,0.496,0.564,0.5,0.456,–,–,–,–,0.641,0.466,0.702,0.608
SW 900,0.602,0.596,0.529,0.511,0.651,0.556,0.592,0.542,–,–,–,–,0.511,0.555,0.874,0.411
